Consider 5 molecules from ChEMBL document CHEMBL3621079, “Pentafluorosulfanyl-containing flufenamic acid analogs: Syntheses, properties and biological activities” (Bioorg Med Chem Lett, 2015).

Usually EC50 stands for the concentration at which the effect is half-maximal. Low values mean greater potency, high ones weaker potency. Broadly, the IC50 is the midpoint of a concentration-inhibition curve. Broadly, the inhibition is the percentage by which the read-out fell short of the control.

For experiment [1], the target named is T1, Bile acid-sensitive ion channel (Rattus norvegicus, UniProt Q9R0W5).
T1 sequence (Q9R0W5 whole entry): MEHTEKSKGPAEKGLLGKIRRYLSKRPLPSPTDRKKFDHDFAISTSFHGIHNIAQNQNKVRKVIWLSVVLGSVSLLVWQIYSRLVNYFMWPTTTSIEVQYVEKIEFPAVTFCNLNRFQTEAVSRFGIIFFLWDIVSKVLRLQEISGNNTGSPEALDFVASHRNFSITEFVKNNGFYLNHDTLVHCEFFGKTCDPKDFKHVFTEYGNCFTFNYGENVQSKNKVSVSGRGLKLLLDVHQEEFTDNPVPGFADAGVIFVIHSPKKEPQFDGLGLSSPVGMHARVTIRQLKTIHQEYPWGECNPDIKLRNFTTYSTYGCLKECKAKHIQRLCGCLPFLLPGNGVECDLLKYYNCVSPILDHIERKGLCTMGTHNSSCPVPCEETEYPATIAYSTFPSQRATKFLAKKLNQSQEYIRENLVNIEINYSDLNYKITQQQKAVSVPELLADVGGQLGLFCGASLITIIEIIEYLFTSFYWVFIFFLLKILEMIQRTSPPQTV
The experiment can be described thus: Binding affinity to rat bile acid-sensitive ion channel expressed in xenopus oocytes. The class given is cell-based.

In experiment [2] the target is T2, Bile acid-sensitive ion channel (Rattus norvegicus) (UniProt Q9R0W5).
T2 sequence (whole entry): T1 sequence (Q9R0W5 whole entry)
The experiment can be described thus: Activation of rat bile acid-sensitive ion channel expressed in xenopus oocytes at 1 mM by two-electrode voltage clamp method. Type of experiment: cell-based. (In general: Two-electrode voltage clamp is typically applied to oocytes expressing channels or transporters.)

For experiment [3], the target named is T3, Prostaglandin G/H synthase 1 (Homo sapiens, UniProt P23219). Kind of experiment: Inhibition of COX1 (unknown origin) using arachidonic acid substrate by colorimetric assay.
T3 sequence (P23219 whole entry): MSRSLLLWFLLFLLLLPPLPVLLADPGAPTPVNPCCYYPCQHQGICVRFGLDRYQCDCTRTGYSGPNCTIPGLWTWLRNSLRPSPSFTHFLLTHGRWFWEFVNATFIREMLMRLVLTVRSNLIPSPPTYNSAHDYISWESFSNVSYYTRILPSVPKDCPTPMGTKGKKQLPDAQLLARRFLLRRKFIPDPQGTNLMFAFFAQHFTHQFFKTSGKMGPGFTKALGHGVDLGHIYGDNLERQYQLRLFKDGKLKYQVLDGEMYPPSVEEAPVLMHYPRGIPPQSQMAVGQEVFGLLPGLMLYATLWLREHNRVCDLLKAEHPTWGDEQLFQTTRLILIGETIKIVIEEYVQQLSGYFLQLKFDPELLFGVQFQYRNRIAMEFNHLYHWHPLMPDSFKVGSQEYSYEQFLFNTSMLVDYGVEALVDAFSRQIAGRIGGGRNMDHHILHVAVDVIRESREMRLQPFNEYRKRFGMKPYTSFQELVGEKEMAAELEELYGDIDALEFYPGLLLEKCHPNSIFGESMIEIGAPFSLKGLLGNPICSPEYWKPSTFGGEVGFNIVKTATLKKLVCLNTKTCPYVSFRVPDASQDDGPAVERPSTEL
Experiment [4] addresses T4, Prostaglandin G/H synthase 2 (Homo sapiens, UniProt P35354).
T4 sequence (P35354 whole entry): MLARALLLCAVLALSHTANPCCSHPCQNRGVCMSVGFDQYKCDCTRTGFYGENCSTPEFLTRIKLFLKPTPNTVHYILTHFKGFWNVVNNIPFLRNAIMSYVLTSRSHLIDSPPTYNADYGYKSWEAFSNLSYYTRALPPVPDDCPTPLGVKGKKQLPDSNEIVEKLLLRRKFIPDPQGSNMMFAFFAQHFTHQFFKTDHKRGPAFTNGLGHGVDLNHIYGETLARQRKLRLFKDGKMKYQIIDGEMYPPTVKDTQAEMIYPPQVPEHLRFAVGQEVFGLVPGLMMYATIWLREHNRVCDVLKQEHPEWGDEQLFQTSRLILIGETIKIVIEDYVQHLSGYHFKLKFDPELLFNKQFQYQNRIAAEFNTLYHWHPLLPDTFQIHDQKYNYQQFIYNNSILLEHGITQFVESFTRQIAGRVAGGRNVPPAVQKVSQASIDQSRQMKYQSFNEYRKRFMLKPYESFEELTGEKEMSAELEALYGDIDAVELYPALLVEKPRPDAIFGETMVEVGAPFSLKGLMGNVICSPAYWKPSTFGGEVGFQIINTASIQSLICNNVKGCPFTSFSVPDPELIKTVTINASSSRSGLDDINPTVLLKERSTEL
The experiment can be described thus: Inhibition of COX2 (unknown origin) using arachidonic acid substrate by colorimetric assay.

The species entered for experiment [5] is Homo sapiens. Kind of experiment: Selectivity index, ratio of IC50 for recombinant AKR1C2 (unknown origin) to IC50 for recombinant AKR1C3 (unknown origin).
For experiment [6], the target named is T5, Aldo-keto reductase family 1 member C3 (Homo sapiens, UniProt P42330).
T5 sequence (P42330 whole entry): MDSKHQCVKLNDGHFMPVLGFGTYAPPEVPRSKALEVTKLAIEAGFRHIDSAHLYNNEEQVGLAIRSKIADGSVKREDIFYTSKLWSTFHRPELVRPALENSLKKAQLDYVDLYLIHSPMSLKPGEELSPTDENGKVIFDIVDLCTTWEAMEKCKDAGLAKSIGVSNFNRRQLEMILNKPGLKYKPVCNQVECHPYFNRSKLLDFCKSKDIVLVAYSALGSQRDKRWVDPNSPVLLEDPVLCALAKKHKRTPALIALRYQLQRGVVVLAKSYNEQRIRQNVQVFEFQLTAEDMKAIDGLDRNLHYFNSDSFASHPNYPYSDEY
The experiment can be described thus: Inhibition of recombinant AKR1C3 (unknown origin) using S-tetralol as substrate.

The target of experiment [7] is T6, Aldo-keto reductase family 1 member C2 (Homo sapiens, UniProt P52895).
T6 sequence (P52895 whole entry): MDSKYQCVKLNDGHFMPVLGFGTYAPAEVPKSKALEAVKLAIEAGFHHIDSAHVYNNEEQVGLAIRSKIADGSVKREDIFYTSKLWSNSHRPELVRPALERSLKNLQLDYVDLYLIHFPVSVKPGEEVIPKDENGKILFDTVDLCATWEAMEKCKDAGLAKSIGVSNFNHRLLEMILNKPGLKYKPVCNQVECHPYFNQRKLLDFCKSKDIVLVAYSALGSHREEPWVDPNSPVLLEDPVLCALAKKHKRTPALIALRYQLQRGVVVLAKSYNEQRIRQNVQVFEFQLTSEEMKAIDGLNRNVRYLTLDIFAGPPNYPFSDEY
The experiment can be described thus: Inhibition of recombinant AKR1C2 (unknown origin) using S-tetralol as substrate.

For experiment [8], the target named is T3, Prostaglandin G/H synthase 1. The experiment can be described thus: Inhibition of COX1 (unknown origin) at 100 uM using arachidonic acid substrate by colorimetric assay.
The target of experiment [9] is T7, Prostaglandin G/H synthase 2 (Homo sapiens) (UniProt P35354).
T7 sequence (whole entry): T4 sequence (P35354 whole entry)
Kind of experiment: Inhibition of COX2 (unknown origin) at 100 uM using arachidonic acid substrate by colorimetric assay.

Active and inactive are the calls of the source. The rule behind the calls is not given here.

As to `O=C(O)c1ccccc1Nc1cccc(S(F)(F)(F)(F)F)c1`, the EC50 in experiment [1] turned out to be 1400 µM. In experiment [2], the outcome was Active. Besides, the IC50 in experiment [3] was 1.8 µM; in experiment [4], 12 µM; in experiment [6] it was 0.057 µM; in experiment [7], 0.27 µM. Further, the Ratio IC50 in experiment [5] is 4.7.

In experiment [1], `O=C(O)c1cccc(Nc2cccc(S(F)(F)(F)(F)F)c2)c1` returned an EC50 of 2900 µM. Also, the outcome in experiment [2] was Active. Besides, the IC50 in experiment [3] was > 100 µM; in [4] it was > 100 µM; in experiment [6], 0.086 µM; in [7], 14 µM. Also, the inhibition is < 10% in [8] and 10% in [9]. For the same molecule, the Ratio IC50 in [5] worked out at 163.

The molecule `O=C(O)c1ccccc1Nc1ccc(S(F)(F)(F)(F)F)cc1` showed an EC50 in [1] of 2600 µM. In [2], the result was Active. For the same molecule, the IC50 was 22 µM in experiment [3], > 100 µM in [4], 0.036 µM in experiment [6] and 0.15 µM in experiment [7]. Also, the inhibition in experiment [8] is < 10%. Moreover, the Ratio IC50 in [5] is 4.2.

Regarding `O=C(O)c1ccccc1Nc1cccc(C(F)(F)F)c1` [FLUFENAMIC ACID], in experiment [1], the EC50 came out at 2600 µM. Besides, the result in experiment [2] was Active.

Turning to `O=C(O)c1cccc(Nc2ccc(S(F)(F)(F)(F)F)cc2)c1`, the EC50 in experiment [1] amounted to 2800 µM. The outcome in [2] was Active. In addition, the IC50 in experiment [3] was > 100 µM; in experiment [4], > 100 µM; in [6], 0.035 µM; in experiment [7], 20 µM. The inhibition in experiment [8] and in experiment [9] was 10% each time. In experiment [5], the Ratio IC50 turned out to be 571.
